In patent US9145405B2, “Oxadiazole compound and preparation method thereof, pharmaceutical composition and use thereof” (SHANGHAI JIAO TONG UNIVERSITY, priority 2011, dated 2015):
≈ marks a conversion by molar mass, not a printed value. Where two headings read alike, the source gives them in different places.

Legend:
[1] = system: Cox_B3 virus; assay: Anti-Cox_B3 test: inhibition of cytopathic effect (CPE) in infected Vero cells, Reed-Muench; format: cell-based; details: for IC50: read-out: IC50 (half-inhibitory concentration for viruses)
Description: The present examples verifies experimental results of anti-Cox_B3 of the compounds 1-137of the present invention, Pleconaril, 3-[3,5-dimethyl-4-[5-(3-methy-1,2-oxazolyl)propoxy]phenyl]-5-(trifluonomethyl) -1,2,4-oxadiazole is used as positive control.

[2] = system: Vero cells; assay: Toxicity (half toxic concentration) in the anti-Cox_B3 test on Vero cells; format: cell-based
[3] = Cox_B3 virus in Vero cells, CPE, Reed-Muench method

| Compound | IC50 (half-inhibitory concentration for viruses) [1, 3] | TC50 (half of the toxic concentration) [2] | TC50 (half of the toxic concentration) ([2]; Vero cells, Cox_B3) | IC50 [1, 3] | IC50 ([1]; Vero) |
| --- | --- | --- | --- | --- | --- |
| 2-[2,6-dimethyl-4-[(5-(trifluoromethyl)-1,2,4-oxadiazole-3-yl)phenoxyl]ethoxyl]-3-fluoro-5-methylpyridine [Compound 47] | 0.082 µg/mL | 39.56 µg/mL |  |  |  |
| 2-[2,6-dimethyl-4-[(5-(trifluoromethyl)-1,2,4-oxadiazole-3-yl)phenoxyl]ethoxyl]-3-fluoro-5-methylpyridine [Compound 101] | 0.078 µg/mL | 37.35 µg/mL |  |  |  |
| 3-[2,6-dimethyl-4-[(5-(trifluoromethyl)-1,2,4-oxadiazole-3-yl)phenoxyl]ethoxyl]-6-methylpyridazine [Compound 56] | 0.20 µg/mL | 22.22 µg/mL |  |  |  |
| 3-[2,6-dimethyl-4-[(5-(trifluoromethyl)-1,2,4-oxadiazole-3-yl)phenoxyl]ethoxyl]-6-methylpyridazine [Compound 110] | 0.28 µg/mL | 36.89 µg/mL |  |  |  |
| 3-[2-(2,6-dimethyl-4-[(5-(trifluoromethyl)-1,2,4-oxadiazole-3-yl)phenoxyl]ethoxyl]-2-formamide-6-fluoropyrazine [Compound 55] | 0.16 µg/mL |  | 36.66 µg/mL |  |  |
| 3-[2-(2,6-dimethyl-4-[(5-(trifluoromethyl)-1,2,4-oxadiazole-3-yl)phenoxyl]ethoxyl]-2-formamide-6-fluoropyrazine [Compound 109] | 0.13 µg/mL |  | 48.21 µg/mL |  |  |
| 3-[2-[2,6-dimethyl-4-[5-(trifluoromethyl)-1,2,4-oxadiazole-3-yl]phenoxyl]ethoxyl]isoxazole-5-carboxylate [Compound 58] | 0.082 µg/mL | 40.67 µg/mL |  |  |  |
| 3-[3,5-dimethyl-4-[2-(3-methyl-1,2,4-thiadiazole-5-thio)ethoxyl]phenyl]-5-(trifluoromethyl)-1,2,4-oxadiazole [Compound 23] | 0.12 µg/mL | 39.78 µg/mL |  |  |  |
| 3-[3,5-dimethyl-4-[2-(3-methyl-1,2,4-thiadiazole-5-thio)ethoxyl]phenyl]-5-(trifluoromethyl)-1,2,4-oxadiazole [Compound 77] | 0.16 µg/mL | 38.58 µg/mL |  |  |  |
| 3-[3,5-dimethyl-4-[2-(4-methylthiazole-2-thio)ethoxyl]phenyl]-5-(trifluoromethyl)-1,2,4-oxadiazole [Compound 14] | 0.11 µg/mL | 40.58 µg/mL |  |  |  |
| 3-[3,5-dimethyl-4-[2-(4-methylthiazole-2-thio)ethoxyl]phenyl]-5-(trifluoromethyl)-1,2,4-oxadiazole [Compound 68] | 0.38 µg/mL | 43.87 µg/mL |  |  |  |
| 3-[3,5-dimethyl-4-[2-(5-methyl-1H-imidazole-2-thio)ethoxyl]phenyl]-5-(trifluoromethyl)-1,2,4-oxadiazole [Compound 18] | 0.13 µg/mL |  |  |  |  |
| 3-[3,5-dimethyl-4-[(2-(cyclohexyloxy)-ethoxyl)phenyl]-5-(trifluoromethyl)-1,2,4-oxadiazole [Compound 35] | 0.08 µg/mL |  | 36.78 µg/mL |  |  |
| 3-[3-[2,6-dimethyl-4-[5-(trifluoromethyl)-1,2,4-oxadiazole-3-yl]phenoxyl]propoxy]isoxazole-5-carboxylate [Compound 61] | 0.23 µg/mL | 37.58 µg/mL |  |  |  |
| 4-[2,6-dimethyl-4-(5-(trifluoromethyl)-1,2,4-oxadiazole-3-yl) phenoxyl]ethoxyl]-2-hydroxy-5-fluoropyrimidine [Compound 107] | 0.085 µg/mL | 33.82 µg/mL |  |  |  |
| 4-[2,6-dimethyl-4-[(5-(trifluoromethyl)-1,2,4-oxadiazole-3-yl)phenoxyl]ethoxyl]-2-hydroxyl-5-fluoropyrimidine [Compound 53] | 0.056 µg/mL | 46.89 µg/mL |  |  |  |
| 4-[2,6-dimethyl-4-[(5-(trifluoromethyl)-1,2,4-oxadiazole-3-yl)phenoxyl]ethoxyl]-2-methoxyl-5-fluoropyrimidine [Compound 54] | 0.067 µg/mL | 43.15 µg/mL |  |  |  |
| 4-[2,6-dimethyl-4-[(5-(trifluoromethyl)-1,2,4-oxadiazole-3-yl)phenoxyl]ethoxyl]-2-methoxyl-5-fluoropyrimidine [Compound 108] | 0.078 µg/mL | 47.58 µg/mL |  |  |  |
| 4-[2,6-dimethyl-4-[(5-(trifluoromethyl)-1,2,4-oxadiazole-3-yl)phenoxyl]ethoxyl]-3-fluorobenzonitrile [Compound 38] | 0.048 µg/mL | 45.28 µg/mL |  |  |  |
| 4-[2,6-dimethyl-4-[(5-(trifluoromethyl)-1,2,4-oxadiazole-3-yl)phenoxyl]ethoxyl]-3-fluorobenzonitrile [Compound 92] | 0.18 µg/mL | 43.78 µg/mL |  |  |  |
| 5-[2,6-dimethyl-4-[(5-(trifluoromethyl)-1,2,4-oxadiazole-3-yl)phenoxyl]ethoxyl]pyridine-2-oxy-ethylketoxime [Compound 45] | 0.10 µg/mL |  | 32.28 µg/mL |  |  |
| 5-[2,6-dimethyl-4-[(5-(trifluoromethyl)-1,2,4-oxadiazole-3-yl)phenoxyl]ethoxyl]pyridine-2-oxy-ethylketoxime [Compound 99] | 0.083 µg/mL |  | 37.81 µg/mL |  |  |
| 6-[2,6-dimethyl-4-[(5-(trifluoromethyl)-1,2,4-oxadiazole-3-yl)phenoxyl]ethoxyl]-3-cyanopyridine [Compound 50] | 0.087 µg/mL | 36.88 µg/mL |  |  |  |
| 6-[2,6-dimethyl-4-[(5-(trifluoromethyl)-1,2,4-oxadiazole-3-yl)phenoxyl]ethoxyl]-3-cyanopyridine [Compound 104] | 0.082 µg/mL | 37.56 µg/mL |  |  |  |
| Cc1cc(-c2noc(C(F)(F)F)n2)cc(C)c1OCCCOc1cc(C(F)(F)F)no1 [Compound 9, 3-[3,5-dimethyl-4-[3-(3-trifluoromethylisoxazole-5-oxy)propoxy]phenyl]-5-(trifluoromethyl)-1,2,4-oxadiazole] |  |  |  | 0.031 µg/mL (≈ 0.0687 µM) |  |
| Cc1cc(Cl)c(OCCCOc2c(C)cc(-c3noc(C(F)(F)F)n3)cc2C)c(Cl)c1 [Compound 130, 3-[4-[3-[2,6-dichloro-4-methylphenoxyl]propoxy]-3,5-dimethylphenyl]-5-(trifluoromethyl)-1,2,4-oxadiazole] |  |  |  |  | 0.031 µg/mL (≈ 0.0652 µM) |
